Measurements: patent US8828993B2, “Psychotropic agents having glutamate NMDA activity” (Ramot At Tel-Aviv University Ltd., priority 2006, dated 2014)
“Also recorded” adds a separate entry of the source. Where a name gives a salt, the structure may show the parent alone.

Key:
Format in all cases: in vivo
mice [1] = test: Open field exploratory locomotor activity; conditions: for sedative effect: mice, i.p.
From the text: Open Field Exploratory Locomotor Activity
The procedure consists of subjecting an animal, usually a rodent, to an unknown large environment from which escape is prevented by surrounding walls. The open field test is now one of the most popular procedures in animal psychology (Crawley, et al., Exploratory behavior models of anxiety in mice, Neurosci Biobehav Rev 9 (1985), pp. 37-44). The procedure involves forced confrontation of a rodent with the situation. The animal is placed in the center or close to the walls of the apparatus and the following behavioral items are recorded for a period ranging from 5 to 20 minutes: horizontal locomotion, and frequency of rearing or leaning. In such a situation, rodents spontaneously prefer the periphery of the apparatus to activity in the central parts of the open field. Increase in time spent in the central part as well as of the ratio central/total locomotion or decrease of the latency to enter the central part are indications of anxiolysis.
In a typical test, an individual mouse was placed in a novel environment of a square open field (50×50 cm), the floor of which had been divided into 3 areas, as shown below. The area within 10 cm of the chamber walls was termed the periphery. […] One hour after drug administration, the animal was placed in the same corner of the field. The animal behavior in the open field was recorded by videotaping for 20-60 minutes and analyzed subsequently digitally using the Noldus software for animal behavior. The measurements included velocity, distance moved, frequency of visits to the central area, number of rearing events.
The effect of Compound 1 on the behavior of mice in the open field and the dose-dependent effect following i.p administration were evaluated. Naïve male Mice (Balb/c, Harlan Israel) were used. The animals, divided 3 to 5 animals per group, were administered with Compound 1 (12.5, 25, 50, 75 and 100 mg/kg) 1 hr prior to placing each in an open field. Mice were monitored for 1 hr (every 5 minutes) using the Noldus system, and their distance moved, velocity, time of immobility and number of rearings was recorded.
(§1) The effect of Compound 6 on the behavior of mice in the open field was also examined. Naïve male mice (Balb/c, Harlan Israel) were used. Animals (6 per group) were administered with Compound 6 (12.5, 25 and 50 mg/kg, i.p.) 1 hr prior to placing each in the open field. Mice were followed for 1 hr (every 5 minutes) using the Noldus system, and their distance moved, velocity, time of immobility and number of rearings was recorded.
The effect of oral administration of Compound 1 in the open field was tested by orally administering to male ICR mice varying amounts of Compound 1 (5, 10 and 20 mg/kg) or vehicle. Animals were placed in the open field 1 hr after drug administration and horizontal and vertical behavior was recorded for 20 minutes.
as §1, with “The dose-dependent” for “The”, “3 administered i.p.” for “6 on the behavior of mice”, “tested.” for “examined.”, “Animals” for “Animals (6 per group)”, “3” for “6”, “i.p., 6 per group)” for “i.p.)”
Animals were administered orally with Compound 1 (5, 10 and 20 mg/kg) or with a vehicle. Animals were placed in the open field 1 hr after drug administration and animal track was registered for 20 minutes. The time spent in the center (zone 3) and the frequency to the center were indicators of anxiety.

mice [2] = test: Elevated plus maze
From the text: The elevated plus maze is a widely used method to test anxiety in rodents (Pellow, et al., Pharmacol. Biochem. Behav., 24, 525-529 (1986)). The apparatus was made of wood and painted black, with two opposing open arms and two opposite enclosed arms of the same size. The arms were attached to a central square shaped in a plus sign. The whole apparatus was placed 50 cm above the floor. Anxious animals refrain from entering the open arm and prefer the closed arm.
In a typical experiment, Balb/c male mice were administered orally with 10 and 20 mg/kg of Compound 1 or Compound 6 and with a vehicle or with diazepam (1 mg/kg) administered per os (p.o.) 90 minutes before they were placed in the center of the maze. The frequency to the open aims, the time spent in the different arms, the velocity and number of rearings of the animals in each zone were recorded (Noldus).
Male Balb/c mice were used. Animals were transferred to the behavior room 24 hr before the experiment. Compound 1 or diazepam were administered orally 90 minutes before testing. Each treatment group included 5 animals.
Male Balb/c mice were used. Animals were transferred to the behavior room 24 hr before the experiment. Compound 6 (3, 9, or 27 mg/kg) or vehicle were administered orally 90 minutes before testing. Each treatment group included 5 animals.

[3] = tested on: rats pretreated with MK-801; test: Morris Water Maze in rats pretreated with MK-801; conditions: rats pretreated with MK-801 0.15 mg/kg i.p.
Protocol: (§2) The Morris Water Maze is a well known test aimed to assess spatial cognitive tasks (Anger, et al., Animal test systems to study behavioral dysfunctions of neurodegenerative disorders, Neurotoxicology, 12, 403-13 (1991)). The maze consists of a circular pool measuring 1.80 m in diameter 60 cm in height. The pool was filled with water (21±1° C.) to a depth of 30 cm. A circular hidden escape platform (10 cm in diameter) was placed just below the water surface. The test room contained several permanent extra maze cues such as the rat housing rack, laboratory table, posters on the walls, etc.
as §2, with “tasks.” for “tasks (Anger, et al., Animal test systems to study behavioral dysfunctions of neurodegenerative disorders, Neurotoxicology, 12, 403-13 (1991)).”
In the experiment rats were given Compound 1 orally on day 1 and the first test begun 90 minute later, six trials per day, for 3 consecutive days, to find the hidden platform (acquisition phase). The escape latency, i.e., the time required by the rat to find and climb onto the platform, was recorded for up to 120 sec. Each rat was allowed to remain on the platform for 30 sec, after which it was removed to its home cage.
A video camera was placed above the center of the pool for tracking the rat, and a video tracking system (Noldus) with online digital output directly fed data into a computer. Data were analyzed using EthoVision automated tracking system software (Noldus).
Compound 1 at both doses decreased the latency to the platform on day 3 of the experiment but not on days 1 and 2.
The relief of cognitive impairments was also shown in the use of Compound 6. […] Compound 6 at 10 mg/kg decreased the latency to the platform on days 2 and 3 of the experimentation.

[4] = male ICR mice, oral 10 and 20 mg/kg, 1 hr after administration, 20 minutes
[5] = male Balb/c mice, 20 mg/kg oral
[6] = male Balb/c mice, oral, diazepam 1 mg/kg
[7] = Balb/c mice, 12.5, 25 and 50 mg/kg i.p.

## COC(=O)C(N)CN1CCN(C2=Nc3ccccc3Nc3sc(C)cc32)CC1 (stereo not shown) [Compound 1, 2-amino-3-[4-(2-methyl-10H-thieno[2,3-b][1,5]benzodiazepin-4-yl)-piperazin-1-yl]-propionic acid, methyl ester hydrochloride salt]
Mice [1]; Balb/c mice, 12.5 mg/kg i.p.
  horizontal and vertical motility parameters: did not modify significantly
  rearing frequency: tended to increase
Mice [1]; Balb/c mice, doses higher than 50 mg/kg i.p.
  sedative effect / motility: marked sedative effect
Mice [1]; Balb/c mice, doses up to 50 mg/kg i.p.
  horizontal and vertical motility: mild inhibition
Mice [1]; Balb/c mice, i.p. 12.5, 25, 50, 75 and 100 mg/kg, 1 hr prior, monitored 1 hr
  horizontal and vertical motility: dose dependent decrease
Mice [1]; male ICR mice, 20 mg/kg p.o., 1 hr before, 20 minutes
  anxiety parameters (time spent in the center and frequency to the center): anxiolytic activity
Mice [1]; [4]
  horizontal behavior (velocity and distance moved): slightly decreased
  vertical behavior (number of rearings): increased
Mice [1]
  sedative effect: mild sedative effect
Mice [2]; 20 mg/kg
  anxiolytic activity (overall conclusion): anxiolytic activity which resembles diazepam
Mice [2]; [5]
  time spent in the center: increased
  time spent in the closed and the open arm: did not significantly affect
Mice [2]; male Balb/c mice, 20 mg/kg oral, 90 minutes before testing
  frequency to the open arm and the center: frequented significantly more
Mice [2]; [6]
  number of rearings in the open arm: increased number of rearings
  velocity: not
[3]; 10 and 20 mg/kg p.o. on day 1, day 3
  latency to the platform: decreased

## CNC(CN1CCN(C2=Nc3ccccc3Nc3sc(C)cc32)CC1)C(=O)OC (stereo not shown) [Compound 6, 2-N-methylamino-3-[4-(2-methyl-10H-thieno[2,3-b][1.5]benzodiazepin-4-yl)-piperazin-1-yl]propionic acid, methyl ester trihydrochloride salt]
Mice [1]; [7]
  duration of “not moving” periods: increased
  horizontal (distance) and vertical motility (number of rearings): inhibition
Mice [1]; Balb/c mice, 12.5, 25 and 50 mg/kg i.p., 1 hr prior
  motility (distance moved and velocity): dose dependent decrease
Mice [1]; Balb/c mice, up to 50 mg/kg i.p.
  effect on motility (distance moved and velocity): mild
Mice [1]
  sedative effect: mild sedative effect
Mice [2]; male Balb/c mice, 3, 9 and 27 mg/kg orally
  time spent in the closed arm: did not significantly affect
Mice [2]; male Balb/c mice, 3, 9 and 27 mg/kg orally, 90 minutes before testing, trihydrochloride salt
  time spent in the open arms: more time; also recorded: dose-dependently increase
Mice [2]; male Balb/c mice, 3, 9 and 27 mg/kg orally, trihydrochloride salt
  time spent in the center: less and decrease
[3]; 10 mg/kg p.o. once on day 1, days 2 and 3
  latency to the platform: decreased
